ChEMBL document CHEMBL1212738, “Phenotypic and genotypic characterization of Enterobacteriaceae with decreased susceptibility to carbapenems: results from large hospital-based surveillance studies in China” (2010)
Converted amounts (≈) assume the structure as drawn.

Columns and labels:
[1] = system: Klebsiella pneumoniae; assay: Antimicrobial activity against Klebsiella pneumoniae PU104T expressing TEM-1, CTX-M-15 by CLSI method; assay type: functional
[2] = system: Escherichia coli; assay: Antimicrobial activity against Escherichia coli ZJ87 expressing KPC-2, TEM-1, ompC by CLSI method; assay type: functional
[3] = system: Enterobacter cloacae; assay: Antimicrobial activity against carbapenem-resistant Enterobacter cloacae SZ93 deficient in ompC by CLSI method; assay type: functional
[4] = system: Klebsiella pneumoniae; assay: Antimicrobial activity against Klebsiella pneumoniae FZ47T expressing IMP-8, TEM-1, CTX-M-14, qnrB2, aac(6')-Ib by CLSI method; assay type: functional
[5] = system: Enterobacter cloacae; assay: Antimicrobial activity against carbapenem-resistant Enterobacter cloacae NJ88 deficient in CTX-M-14, ompC/F by CLSI method; assay type: functional
[6] = system: Klebsiella pneumoniae; assay: Antimicrobial activity against Klebsiella pneumoniae GZ64 expressing IMP-4, ompK35/36 by CLSI method; assay type: functional
[7] = system: Escherichia coli; assay: Antimicrobial activity against carbapenem-resistant Escherichia coli PU102 deficient in TEM-1, CTX-M-14, CMY-2, aac(6')-Ib, ompC DEc, ompF by CLSI method; assay type: functional
[8] = system: Escherichia coli; assay: Antimicrobial activity against carbapenem-resistant Escherichia coli HX74 deficient in TEM-1, CTX-M-14, CTX-M-3, aac(6')-Ibcr, ompC/F by CLSI method; assay type: functional
[9] = system: Klebsiella pneumoniae; assay: Antimicrobial activity against Klebsiella pneumoniae ZJ70T expressing KPC-2 by CLSI method; assay type: functional
[10] = system: Klebsiella pneumoniae; assay: Antimicrobial activity against carbapenem-resistant Klebsiella pneumoniae ZJ18 deficient in KPC-2, SHV-28, DHA-1, ompK35 by CLSI method; assay type: functional
[11] = system: Klebsiella pneumoniae; assay: Antimicrobial activity against Klebsiella pneumoniae ZJ68T expressing CTX-M-15 by CLSI method; assay type: functional
[12] = system: Citrobacter freundii; assay: Antimicrobial activity against Citrobacter freundii RJ78 expressing CMY-2, qnrA1, aac(6')-Ib-cr, ompC by CLSI method; assay type: functional
[13] = system: Klebsiella pneumoniae; assay: Antimicrobial activity against Klebsiella pneumoniae FZ49T expressing IMP-8, TEM-1, CTX-M-14, qnrB2, aac(6')-Ib by CLSI method; assay type: functional
[14] = system: Klebsiella aerogenes; assay: Antimicrobial activity against carbapenem-resistant Enterobacter aerogenes PU41 deficient in CTX-M-14, DHA-1, qnrS1, ompC DEc, ompF by CLSI method; assay type: functional
[15] = system: Klebsiella pneumoniae; assay: Antimicrobial activity against Klebsiella pneumoniae WH97 expressing SHV-33, aac(6')-Ib, ompK35 DE by CLSI method; assay type: functional
[16] = system: Klebsiella pneumoniae; assay: Antimicrobial activity against carbapenem-resistant Klebsiella pneumoniae SX67 deficient in SHV-2, CTX-M-14, DHA-1, qnrB6/S1, aac(6')-Ib-cr, ompK35/36 by CLSI method; assay type: functional
[17] = system: Enterobacter cloacae; assay: Antimicrobial activity against carbapenem-resistant Enterobacter cloacae NJ91 deficient in CTX-M-14, ompC/F by CLSI method; assay type: functional
[18] = system: Escherichia coli; assay: Antimicrobial activity against Escherichia coli C600 transconjugant GZ66T expressing SHV-11, DHA-1 by CLSI method
[19] = system: Escherichia coli; assay: Antimicrobial activity against carbapenem-resistant Escherichia coli PU43 deficient in TEM-1, CTX-M-14, aac(6')-Ib, ompC/F by CLSI method; assay type: functional
[20] = system: Enterobacter cloacae; assay: Antimicrobial activity against carbapenem-resistant Enterobacter cloacae WH103 deficient in IMP-4, TEM-1, CTX-M-3, qnrS1, ompC by CLSI method; assay type: functional
[21] = system: Klebsiella aerogenes; assay: Antimicrobial activity against Enterobacter aerogenes PU41T expressing CTX-M-14, DHA-1, qnrS1 by CLSI method; assay type: functional
[22] = system: Klebsiella pneumoniae; assay: Antimicrobial activity against carbapenem-resistant Klebsiella pneumoniae PU3 deficient in DHA-1, aac(6')-Ib-cr, ompK35/36 by CLSI method; assay type: functional
[23] = system: Escherichia coli; assay: Antimicrobial activity against Escherichia coli ZJ86T expressing KPC-2 by CLSI method; assay type: functional
[24] = system: Enterobacter cloacae; assay: Antimicrobial activity against carbapenem-resistant Enterobacter cloacae NJ89 deficient in CTX-M-14, ompC/F by CLSI method; assay type: functional
[25] = system: Klebsiella pneumoniae; assay: Antimicrobial activity against Klebsiella pneumoniae GZ64T expressing IMP-4 by CLSI method; assay type: functional
[26] = system: Escherichia coli; assay: Antimicrobial activity against Escherichia coli PU102T expressing TEM-1, CTX-M-14, CMY-2 by CLSI method; assay type: functional
[27] = system: Klebsiella pneumoniae; assay: Antimicrobial activity against Klebsiella pneumoniae ZJ18T expressing KPC-2, DHA-1 by CLSI method; assay type: functional
[28] = system: Klebsiella pneumoniae; assay: Antimicrobial activity against carbapenem-resistant Klebsiella pneumoniae PU104 deficient in TEM-1, SHV-11, CTX-M-15, qnrS1, ompK35/36 by CLSI method; assay type: functional
[29] = system: Escherichia coli; assay: Antimicrobial activity against carbapenem-resistant Escherichia coli PU60 deficient in TEM-1, CMY-2, ompC/F by CLSI method; assay type: functional
[30] = system: Enterobacter cloacae; assay: Antimicrobial activity against carbapenem-resistant Enterobacter cloacae RJ94 deficient in IMP-4, TEM-1, CTX-M-3, ompC by CLSI method; assay type: functional
[31] = system: Escherichia coli; assay: Antimicrobial activity against carbapenem-resistant Escherichia coli PU96 deficient in TEM-1, CTX-M-14, CMY-2, ompC/F by CLSI method; assay type: functional
[32] = system: Enterobacter cloacae; assay: Antimicrobial activity against carbapenem-resistant Enterobacter cloacae NJ90 deficient in CTX-M-14, ompC/F by CLSI method; assay type: functional
[33] = system: Escherichia coli; assay: Antimicrobial activity against Escherichia coli C600 transconjugant XJ81T expressing TEM-1, SHV-12, aac(6')-Ib by CLSI method

Compound | MIC [1] | MIC [2] | MIC [3] | MIC [4] | MIC [5] | MIC [6] | MIC [7] | MIC [8] | MIC [9] | MIC [10] | MIC [11] | MIC [12] | MIC [13] | MIC [14] | MIC [15] | MIC [16] | MIC [17] | MIC [19] | MIC [20] | MIC [21] | other results
C[C@@H](O)[C@H]1C(=O)N2C(C(=O)O)=C(S[C@@H]3CN[C@H](C(=O)Nc4cccc(C(=O)O)c4)C3)[C@H](C)[C@H]12 | 0.016 µg/mL (≈ 0.0336 µM) | 16 µg/mL (≈ 33.6 µM) | 0.064 µg/mL (≈ 0.135 µM) | 4 µg/mL (≈ 8.41 µM) | 128 µg/mL (≈ 269 µM) | 32 µg/mL (≈ 67.3 µM) | 64 µg/mL (≈ 135 µM) | 16 µg/mL (≈ 33.6 µM) | 16 µg/mL (≈ 33.6 µM) | 16 µg/mL (≈ 33.6 µM) | 0.064 µg/mL (≈ 0.135 µM) | 8 µg/mL (≈ 16.8 µM) | 4 µg/mL (≈ 8.41 µM) | 64 µg/mL (≈ 135 µM) | 4 µg/mL (≈ 8.41 µM) | 32 µg/mL (≈ 67.3 µM) | 128 µg/mL (≈ 269 µM) | 32 µg/mL (≈ 67.3 µM) | 32 µg/mL (≈ 67.3 µM) | 0.032 µg/mL (≈ 0.0673 µM) | MIC [18]: 0.008 µg/mL (≈ 0.0168 µM); MIC [22]: 64 µg/mL (≈ 135 µM); MIC [23]: 16 µg/mL (≈ 33.6 µM); MIC [24]: 128 µg/mL (≈ 269 µM); MIC [25]: 4 µg/mL (≈ 8.41 µM); MIC [26]: 0.25 µg/mL (≈ 0.526 µM); MIC [27]: 2 µg/mL (≈ 4.21 µM); MIC [28]: 64 µg/mL (≈ 135 µM); MIC [29]: 64 µg/mL (≈ 135 µM); MIC [30]: 32 µg/mL (≈ 67.3 µM); MIC [31]: 128 µg/mL (≈ 269 µM); MIC [32]: 128 µg/mL (≈ 269 µM); MIC [33]: 0.008 µg/mL (≈ 0.0168 µM)
NCC[C@H](O)C(=O)N[C@@H]1C[C@H](N)[C@@H](O[C@H]2O[C@H](CN)[C@@H](O)[C@H](O)[C@H]2O)[C@H](O)[C@H]1O[C@H]1O[C@H](CO)[C@@H](O)[C@H](N)[C@H]1O [AMIKACIN] | 2 µg/mL (≈ 3.42 µM) | 1 µg/mL (≈ 1.71 µM) | 1 µg/mL (≈ 1.71 µM) | > 256 µg/mL | > 256 µg/mL | 1 µg/mL (≈ 1.71 µM) | 64 µg/mL (≈ 109 µM) | 8 µg/mL (≈ 13.7 µM) | 1 µg/mL (≈ 1.71 µM) | > 256 µg/mL | > 256 µg/mL | 8 µg/mL (≈ 13.7 µM) | > 256 µg/mL | > 256 µg/mL | 1 µg/mL (≈ 1.71 µM) | > 256 µg/mL | > 256 µg/mL | 8 µg/mL (≈ 13.7 µM) | 1 µg/mL (≈ 1.71 µM) | > 256 µg/mL | MIC [18]: > 256 µg/mL; MIC [22]: 16 µg/mL (≈ 27.3 µM); MIC [23]: 32 µg/mL (≈ 54.6 µM); MIC [24]: > 256 µg/mL; MIC [25]: 1 µg/mL (≈ 1.71 µM); MIC [26]: 1 µg/mL (≈ 1.71 µM); MIC [27]: > 256 µg/mL; MIC [28]: 0.5 µg/mL (≈ 0.854 µM); MIC [29]: 32 µg/mL (≈ 54.6 µM); MIC [30]: 0.5 µg/mL (≈ 0.854 µM); MIC [31]: 2 µg/mL (≈ 3.42 µM); MIC [32]: > 256 µg/mL; MIC [33]: 16 µg/mL (≈ 27.3 µM)
CO[C@@]1(NC(=O)Cc2cccs2)C(=O)N2C(C(=O)O)=C(COC(N)=O)CS[C@@H]21 [CEFOXITIN] | 256 µg/mL (≈ 599 µM) | 64 µg/mL (≈ 150 µM) | > 256 µg/mL | > 256 µg/mL | > 256 µg/mL | > 256 µg/mL | > 256 µg/mL | 64 µg/mL (≈ 150 µM) | 32 µg/mL (≈ 74.9 µM) | > 256 µg/mL | 16 µg/mL (≈ 37.4 µM) | > 256 µg/mL | > 256 µg/mL | > 256 µg/mL | > 256 µg/mL | > 256 µg/mL | > 256 µg/mL | 128 µg/mL (≈ 299 µM) | > 256 µg/mL | 256 µg/mL (≈ 599 µM) | MIC [18]: 128 µg/mL (≈ 299 µM); MIC [22]: > 256 µg/mL; MIC [23]: 64 µg/mL (≈ 150 µM); MIC [24]: > 256 µg/mL; MIC [25]: 256 µg/mL (≈ 599 µM); MIC [26]: > 256 µg/mL; MIC [27]: 128 µg/mL (≈ 299 µM); MIC [28]: 256 µg/mL (≈ 599 µM); MIC [29]: > 256 µg/mL; MIC [30]: > 256 µg/mL; MIC [31]: > 256 µg/mL; MIC [32]: > 256 µg/mL; MIC [33]: 16 µg/mL (≈ 37.4 µM)
POLYMYXIN B | 0.25 µg/mL | 0.5 µg/mL | > 32 µg/mL | 0.25 µg/mL | 0.5 µg/mL | 0.5 µg/mL | 0.5 µg/mL | 0.5 µg/mL | 0.25 µg/mL | 0.5 µg/mL | 0.5 µg/mL | 2 µg/mL | 0.25 µg/mL | 0.5 µg/mL | 0.5 µg/mL | 1 µg/mL | 0.5 µg/mL | 0.5 µg/mL | 0.5 µg/mL | 0.25 µg/mL | MIC [22]: 0.5 µg/mL; MIC [23]: 0.5 µg/mL; MIC [24]: 0.5 µg/mL; MIC [25]: 0.5 µg/mL; MIC [26]: 0.25 µg/mL; MIC [27]: 0.25 µg/mL; MIC [28]: 0.5 µg/mL; MIC [29]: 0.5 µg/mL; MIC [30]: 0.5 µg/mL; MIC [31]: 0.5 µg/mL; MIC [32]: 0.5 µg/mL
